Here are results for three molecules from patent US8609590B2, “Synergistic combination of flumetsulam with thiabendazole” (Dow Global Technologies LLC, priority 2010, dated 2013).

Holding throughout (type): cell-based
Assay [1] relates to Gloeocapsa sp. and Oscillatoria sp. (Gs + Os). Briefly: Algal efficacy testing, modified ASTM 5589, paint film. The following applies: for % inhibition: at the total conc given for the same sample; for Total conc: end-point concentration in paint used for SI. The protocol: (§1) Sample preparation: A single or blend of biocides was post added into white acrylic latex paint free of biocides to give a maximum total active ingredient/s concentration tested. This paint was then diluted with a biocide free acrylic latex paint to give targeted concentrations for the testing. Depending on the type of biocide blends tested, the total biocides concentrations varies from 200 to 5000 ppm. After biocides addition or dilution, each sample was hand mixed for at least a minute until uniformity is achieved. Each of the paint samples as well as a control sample (containing no biocide) were used to prepare films on black plastic-vinyl chloride/acetate copolymer panels (LENETA, Mahwah, N.J.) using a 3 mil (0.0762 mm) bird bar applicator. The panels were thoroughly dried for at least 2 days avoiding direct exposure to sunlight. Square discs (0.5 inch; 1.27 cm^2) were cut out from each panel and were used as the substrate for fungal and algal efficacy tests. This sample size allowed for an agar border when the sample disc was placed into the well of the test plate. Each sample was tested in duplicate
(§2) The appropriate media (BOLD'S 3N for Chlorophytes, BG-11 for Cyanobacteria, and PDA for fungi) were used to support microbial growth. The test plates were maintained at room temp (25° C.-26° C.), in a cycled light-dark environment, for four weeks for algae. Plates for fungal challenge tests were maintained at 30 C for four weeks. At the end of the incubation period the samples were scored for percent area covered by visible microbial growth.
(§3) ASTM 5589 is a standard accelerated test method for determining resistance of various coatings (including paints) to algal defacement. To accommodate for high-throughput screening, this method was scaled down from petri plates to 6-well plates. A single coupon was placed with a pair of sterile forceps at the center of the agar plug (on top) with the painted surface facing upwards. Algal inoculums were prepared by mixing equal concentrations (1×10^6 cfu/ml) and equal volumes (depending on number of samples to be inoculated) of like growing organisms.
(§4) In Flumetsulam+various IT synergy study, three pool of mixed algae were prepared as the test inoculum, Gloeocapsa sp. and Oscillatoria sp. a mix of cyanobacteria grown on BG-11 media; Chlorella sp., Chlorella kessleri, and Nostoc commune are unicellular chlorphytes that were mixed and grown on Bold media; Trentepohlia aurea, Tretepohlia odorata, and Calotrix parientina are filamentous algae that were mixed and grown on Bold media.
(§5) In Diclosulam+various IT synergy study, only two pools of mixed algae were prepared; Gloeocapsa sp. and Oscillatoria sp. grown on BG-11 media and Chlorella sp., Chlorella kessleri, Nostoc commune, Trentepohlia aurea, Tretepohlia odorata, and Calotrix parientina grown on Bold media
(§6) Each well that contains a tested coupon was inoculated with 400 μl of organism mixture (1×10^6 cfu/ml) making sure that the whole surface (paint film as well as the agar surrounding it) was evenly covered. The plates were incubated at room temp (25° C.-26° C.) with cyclic exposure to light (OTT-Lite model # OTL4012P, 40 Watt, 26 KLumen) and dark phases, for a period of four weeks. The total area covered was evaluated at the end of each week according to percent area covered in 5% increments.
(§7) The SI is calculated based on F. C. Kull et.

For assay [2], the system named is Aa + Tv + An + Pf + Ap + Ch. Briefly: Fungal efficacy testing, modified ASTM 5590, paint film (Diclosulam study, single fungal pool). The following applies: for % inhibition: at the total conc given for the same sample; for Total conc: end-point concentration in paint used for SI. The protocol: as §1, §2
ASTM 5590 is a standard accelerated test method for determining resistance of various coatings (including paints) to fungal defacement. To accommodate for high-throughput screening, this method was scaled down from petri plates to 6-well plates. To set up the test, an agar plug was placed at the bottom of each well of the sterile 6-well plate. A single coupon was placed with a pair of sterile forceps at the center of the agar plug (on top) with the painted surface facing upwards. Fungal inoculums were prepared by mixing equal concentrations (1×10^6 cfu/ml) and equal volumes (depending on number of samples to be tested) of like growing organisms. For Flumetsulam+various IT synergy study, three pools of mixed fungi were prepared as the test inoculum. Cladosporium herbarum was mixed with Aureobasidium pullulans; Aspergillus niger was mixed with Penicillium funiculosum and Alternaria alternata was mixed with Trichoderma viride. For Diclosulam+various IT synergy study, all above fungi were mixed as a single pool. […] The total percent area covered was evaluated and recorded at the end of each week after the 2nd week and recorded in increments of 5%.
(§8) The SI is calculated based on F. C. […]

The test system of assay [3] is Alternaria alternata mixed with Trichoderma viride (AaTv). Briefly: Fungal efficacy testing, modified ASTM 5590, paint film (Flumetsulam study). Particulars: for % inhibition: at the total conc given for the same sample; for Total conc: end-point concentration in paint used for SI, four weeks, 30 C. The protocol:
as §1, §2
(§9) ASTM 5590 is a standard accelerated test method for determining resistance of various coatings (including paints) to fungal defacement. To accommodate for high-throughput screening, this method was scaled down from petri plates to 6-well plates. To set up the test, an agar plug was placed at the bottom of each well of the sterile 6-well plate. A single coupon was placed with a pair of sterile forceps at the center of the agar plug (on top) with the painted surface facing upwards. Fungal inoculums were prepared by mixing equal concentrations (1×10^6 cfu/ml) and equal volumes (depending on number of samples to be tested) of like growing organisms. For Flumetsulam+various IT synergy study, three pools of mixed fungi were prepared as the test inoculum. Cladosporium herbarum was mixed with Aureobasidium pullulans; Aspergillus niger was mixed with Penicillium funiculosum and Alternaria alternata was mixed with Trichoderma viride. For Diclosulam+various IT synergy study, all above fungi were mixed as a single pool. Each well was inoculated with 400 μl of organism mixture (1×10^6 cfu/ml) making sure that the whole surface (paint film as well as the agar surrounding it) was evenly covered. The plates were incubated at 30° C. in presence of moisture, for a period of four weeks. The total percent area covered was evaluated and recorded at the end of each week after the 2nd week and recorded in increments of 5%.
as §7

Assay [4] concerns Aspergillus niger mixed with Penicillium funiculosum (AnPf). The description is as above. The following applies: for % inhibition: at the total conc given for the same sample; for Total conc: end-point concentration in paint used for SI, four weeks, 30 C. As to the method: as §1, §2, §9, §7
For assay [5], the system named is Cladosporium herbarum mixed with Aureobasidium pullulans (ApCh). The description is as above. Particulars: for % inhibition: at the total conc given for the same sample; for Total conc: end-point concentration in paint used for SI, four weeks, 30 C. As to the method: as §1, §2, §9, §7
Assay [6] has as its system Chlorella sp., Chlorella kessleri, and Nostoc commune (Cs + Ck + Nc). Briefly: Algal efficacy testing, modified ASTM 5589, paint film (Flumetsulam study). The following applies: for % inhibition: at the total conc given for the same sample; for Total conc: end-point concentration in paint used for SI, four weeks. The protocol: as §1, §2, §3, §4, §6, §7
The subject of assay [7] is Trentepohlia aurea, Tretepohlia odorata, and Calotrix parientina (Cp + To + Ta). Described as above. Particulars: for % inhibition: at the total conc given for the same sample; for Total conc: end-point concentration in paint used for SI, four weeks. The protocol: as §1, §2, §3, §4, §6, §7
Assay [8] concerns Cp + To + Ta + Cs + Ck + Nc. Briefly: Algal efficacy testing, modified ASTM 5589, paint film (Diclosulam study). Particulars: for % inhibition: at the total conc given for the same sample; for Total conc: end-point concentration in paint used for SI. The protocol: as §1, §2, §3, §5
Each well that contains a tested coupon was inoculated with 400 μl of organism mixture (1×10^6 cfu/ml) making sure that the whole surface (paint film as well as the agar surrounding it) was evenly covered. […] The total area covered was evaluated at the end of each week according to percent area covered in 5% increments.
as §8

On to `c1ccc2[nH]c(-c3cscn3)nc2c1` [TBZ, thiabendazole], for which the % inhibition (as a rule, the percentage by which the read-out fell short of the control) in assay [1] (Diclosulam study) is given as 85%; in assay [1] (Flumetsulam study) it was 85%; in assay [2] it was 60%; in assay [3] it was 100%; in assay [4] it was 100%; in assay [5] it was 100%. In addition, the “% inhibition” value in assay [6] is 100%; in assay [7], 90%; in assay [8] it was 100%. Also, the Total conc in assay [1] (Diclosulam study) was 1250 ppm; in assay [1] (Flumetsulam study, four weeks) it was 3750 ppm; in assay [2], 625 ppm; in assay [3], 625 ppm; in assay [4], 625 ppm; in assay [5], 625 ppm. The Total conc was 2500 ppm in assay [6], 3750 ppm in assay [7] and 1250 ppm in assay [8].
Turning to `CCOc1nc(F)cc2nc(S(=O)(=O)Nc3c(Cl)cccc3Cl)nn12` [Diclosulam, N-(2,6-dichlorophenyl)-5-ethoxy-7-fluoro[1,2,4]triazolo[1,5-c]pyrimidine-2-sulfonamide], the “% inhibition” value stood at 90% in assay [1] (Diclosulam study), 0% in assay [2] and 100% in assay [8]. Further, the Total conc in assay [1] (Diclosulam study) is recorded as 875 ppm; in assay [2], 3500 ppm; in assay [8], 1750 ppm.
On to `Cc1ccn2nc(S(=O)(=O)Nc3c(F)cccc3F)nc2n1` [Flumetsulam, N-(2,6-difluorophenyl)-5-methyl[1,2,4]triazolo[1,5-a]pyrimidine-2-sulfonamide], for which the “% inhibition” value in assay [1] (Flumetsulam study) stood at 90%; in assay [3] it was 0%; in assay [4], 90%; in assay [5], 50%; in assay [6], 100%; in assay [7] it was 75%. In addition, the Total conc was found to be 2625 ppm in assay [1] (Flumetsulam study, four weeks); 3500 ppm in assay [3]; 1750 ppm in assay [4]; 3500 ppm in assay [5]; 2625 ppm in assay [6]; 1750 ppm in assay [7].
